pIC50: −log10 of the molar value. Like-named read-outs stand apart in the source and are kept apart here.
Assays:
PI3Kδ = PI3Kδ (Homo sapiens, UniProt O00329); experiment: ADP-Glo cell-free PI3K kinase activity assay
Description: (§6) The PI3K inhibitory activities of these pro-hits were all determined by ADP-Glo assay (Promega) [39]. […] 2.5 μL ATP/substrate mixture was added into the wells to initiate kinase reactions and incubated at room temperature for 1 h. Then, the reactions were stopped by addition of 5 μL ADP-Glo reagent and incubation for 120 min at room temperature. Before reading the luminescence signals of each well, 10 μL kinase detection buffer was added and incubated for 30 min at room temperature.

PI3Kγ = PI3Kγ (Homo sapiens, UniProt P48736); experiment: ADP-Glo cell-free PI3K kinase activity assay; settings: compounds 10 μM, initial screening, Fig. 3A
Description: as §6

RPMI-8226 cells [1] = experiment: MTT cell proliferation assay; format: cell-based, human; settings: 72 h, Fig. 3C, compared with IPI-145
Description: (§1) The human cancer lines, MDA-MB-231, Patu8988, HepG2, A2780, LOVO, H1299, A549, HCT-8, SW480, 3AO, and MGC-803 were saved by the lab of Dr. Jian Jin, Jiangnan University. MCF-7 was purchased from the American Type Culture Collection (ATCC). Human malignant blood tumor cells, HL-60, U266, OPM2, OCI-My5, RPMI-8226, NCI-H929, Jurkat, LP-1, CCRF-CEM, K562, and U937, were provided by Dr. Xinliang Mao, Soochow University. MDA-MB-231, Patu8988, HepG2, A2780, LOVO, H1299, A549, HCT-8, SW480, 3AO, MGC-803, and MCF-7 were cultured in Dulbecco’s Modified Eagle Medium (DMEM, Gibco); U266, RPMI-8226, OPM2, OCI-My5, NCI-H929 and LP-1 were cultured in Iscove’s Modified Dulbecco’s Medium (IMDM. Gibco). The rest of cell lines were cultured in RPMI-1640 medium (Gibco). All mediums were supplemented with 10% fetal bovine serum (FBS, Gibco), 100 μg/mL penicillin and streptomycin, and all cells were maintained in a cell incubator with 5% CO2 at 37℃.
(§2) All cells were incubated in 96-well culture plates with 100 μL medium in each well. The concentration of solid cells (MDA-MB-231, MCF-7, Patu8988, HepG2, A2780, 3AO, LOVO, HCT-8, SW480, A549, H1299, and MGC-803) was 3,000/well and the concentration of suspension cells (HL-60, U266, OPM2, OCI-My5, RPMI-8226, NCI-H929, Jurkat, LP-1, CCRF-CEM, K562, and U937) was 7,500/well. […] The viability of the cancer cells was evaluated by Thiazolyl Blue (MTT) assay. 10 μL of 5 mg/mL MTT was added to each well and the plate was incubated at 37℃ for 4 h. Then, 100 μL MTT buffer was added to each well. After incubating the plate overnight, the absorbance of each well was measured at 550 nm by a microplate reader. All data were normalized to control groups (5 μL DMSO) and converted into the percent of living cells. All results were represented as the mean and standard deviation (SD) of the three independent measurements.

U937 cells = experiment: MTT cell proliferation assay; format: cell-based, human; settings: 72 h, Fig. 3C, compared with IPI-145
Description: as §1, §2

K562 cells [2] = experiment: MTT cell proliferation assay; format: cell-based, human
Description: as §1, §2

[3] = tested on: hematologic tumor cell lines (HL-60, Jurkat, CCRF-CEM, K562, OPM2, OCI-My5, LP-1, RPMI-8226, U937); experiment: MTT cell proliferation assay, hematologic tumor cell lines, gradient of concentrations; format: cell-based, human; settings: Fig. 3D
Description: as §1
All cells were incubated in 96-well culture plates with 100 μL medium in each well. […] The viability of the cancer cells was evaluated by Thiazolyl Blue (MTT) assay. […] After incubating the plate overnight, the absorbance of each well was measured at 550 nm by a microplate reader. […]

[4] = tested on: AKT phosphorylation (Thr308, Ser473) in RPMI-8226 cells; experiment: Western Blot of PI3K/AKT signaling; format: cell-based, human
Description: (§3) K562 and RPMI-8226 cells were cultured in 6-well plates with 1 × 10^6 cells per well and then treated with various concentrations of JN-KI3: 0, 2.5, 5, 10, and 20 μM. After 24 h, the cells of each well were collected and washed by PBS 3 times. The sedimentary cells were then incubated in an ice bath with 80 μL RIPA lysis buffer (Beyotime) for 20 min and then centrifuged at 12,000 rpm for 20 min. The supernatant was collected and its total concentration of protein was quantified using the BCA protein assay kit (Biosharp). Loading buffer (5 ×) was added to all protein samples prepared for Western Blot assays and boiled at 100℃ for 5 min.
(§4) The inhibitory situation of PI3K/AKT (Protein kinase B) signaling pathway was then determined by Western Blot assays. The SDS-polyacrylamide gel electrophoresis (PAGE) was used to separate the proteins. All protein samples and Protein Marker (Proteintech) were loaded onto an acrylamide gel and ran for 30 min at 80 V within the staking gel and for 1 h at 100 V with the separating gel. Then, the protein was electro-transferred onto an NC membrane at 100 V for 1 h. After that, the membrane was blocked in 5% skim milk diluted in TBST (1 ×) for 2 h and then the membrane was incubated with relevant primary antibody overnight at 4℃: Phospho-AKT (Thr308) (1 : 1000, cat# 13038 T; Cell Signaling Technology), Phospho-AKT (Ser473) (1: 1000, cat# 4060 T; Cell Signaling Technology), AKT (pan) (1: 1000, cat# 4691 T; Cell Signaling Technology), caspase-3 (1: 1000, cat# sc-56053; Santa Cruz Biotechnology), PARP (1: 1000, cat# 9542S; Cell Signaling Technology). GAPDH (1: 5000, cat#60004–1-Ig; Santa Cruz Biotechnology), After 10-min washing in TBST (1 ×) for 3 times, the membrane was incubated with relevant secondary antibody at room temperature on a shaker for 1 h. And the membrane was washed for 4 times in TBST again before being imaged.

[5] = tested on: AKT phosphorylation (Thr308, Ser473) in K562 cells; experiment: Western Blot of PI3K/AKT signaling; format: cell-based, human
Description: as §3, §4

RPMI-8226 cells [6] = experiment: Annexin V-FITC/PI flow cytometry apoptosis assay; format: cell-based, human; settings: RPMI-8226, 10 μM, 24 h
Description: (§5) After being treated with JN-KI3 for 24 h, K562 and RPMI-8226 were stained with Annexin V-FITC/PI detection kit (Beyotime) and the apoptosis of the cells were detected using a flow cytometer (FACSCalibur, BD) following the instructions.

K562 cells [7] = experiment: Annexin V-FITC/PI flow cytometry apoptosis assay; format: cell-based, human; settings: 24 h
Description: as §5

PI3Kβ = PI3Kβ (Homo sapiens, UniProt P42338); experiment: ADP-Glo cell-free PI3K kinase activity assay
Chain of PI3Kβ (P42338 whole entry): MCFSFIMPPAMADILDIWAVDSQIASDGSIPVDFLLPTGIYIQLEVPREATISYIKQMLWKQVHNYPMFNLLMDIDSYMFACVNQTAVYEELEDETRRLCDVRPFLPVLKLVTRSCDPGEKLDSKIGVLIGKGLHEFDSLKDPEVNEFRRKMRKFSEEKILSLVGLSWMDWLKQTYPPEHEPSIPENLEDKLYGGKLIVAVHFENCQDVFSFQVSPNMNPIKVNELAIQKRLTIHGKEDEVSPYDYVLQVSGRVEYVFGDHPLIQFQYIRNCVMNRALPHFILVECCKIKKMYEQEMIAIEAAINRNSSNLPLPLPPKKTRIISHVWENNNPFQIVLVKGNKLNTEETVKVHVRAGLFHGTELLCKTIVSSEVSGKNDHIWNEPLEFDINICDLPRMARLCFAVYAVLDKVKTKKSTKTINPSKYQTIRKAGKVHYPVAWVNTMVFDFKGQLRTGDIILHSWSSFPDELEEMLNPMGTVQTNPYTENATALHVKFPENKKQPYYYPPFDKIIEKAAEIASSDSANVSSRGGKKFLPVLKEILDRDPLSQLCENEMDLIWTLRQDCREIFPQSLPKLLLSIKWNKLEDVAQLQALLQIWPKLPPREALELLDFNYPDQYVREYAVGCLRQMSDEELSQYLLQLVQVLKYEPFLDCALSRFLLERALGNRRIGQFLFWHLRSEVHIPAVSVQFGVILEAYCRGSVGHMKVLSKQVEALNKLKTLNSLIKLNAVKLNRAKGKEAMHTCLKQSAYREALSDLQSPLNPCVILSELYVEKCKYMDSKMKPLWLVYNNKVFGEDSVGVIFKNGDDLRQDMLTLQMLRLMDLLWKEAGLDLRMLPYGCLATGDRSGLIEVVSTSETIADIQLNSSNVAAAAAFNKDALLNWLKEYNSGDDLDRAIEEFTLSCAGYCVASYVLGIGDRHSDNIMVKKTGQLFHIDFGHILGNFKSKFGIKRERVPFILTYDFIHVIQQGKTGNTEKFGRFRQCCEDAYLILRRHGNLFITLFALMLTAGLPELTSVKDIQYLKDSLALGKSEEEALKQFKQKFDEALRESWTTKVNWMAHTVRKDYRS
Chain of PI3Kβ (P27986 whole entry partner): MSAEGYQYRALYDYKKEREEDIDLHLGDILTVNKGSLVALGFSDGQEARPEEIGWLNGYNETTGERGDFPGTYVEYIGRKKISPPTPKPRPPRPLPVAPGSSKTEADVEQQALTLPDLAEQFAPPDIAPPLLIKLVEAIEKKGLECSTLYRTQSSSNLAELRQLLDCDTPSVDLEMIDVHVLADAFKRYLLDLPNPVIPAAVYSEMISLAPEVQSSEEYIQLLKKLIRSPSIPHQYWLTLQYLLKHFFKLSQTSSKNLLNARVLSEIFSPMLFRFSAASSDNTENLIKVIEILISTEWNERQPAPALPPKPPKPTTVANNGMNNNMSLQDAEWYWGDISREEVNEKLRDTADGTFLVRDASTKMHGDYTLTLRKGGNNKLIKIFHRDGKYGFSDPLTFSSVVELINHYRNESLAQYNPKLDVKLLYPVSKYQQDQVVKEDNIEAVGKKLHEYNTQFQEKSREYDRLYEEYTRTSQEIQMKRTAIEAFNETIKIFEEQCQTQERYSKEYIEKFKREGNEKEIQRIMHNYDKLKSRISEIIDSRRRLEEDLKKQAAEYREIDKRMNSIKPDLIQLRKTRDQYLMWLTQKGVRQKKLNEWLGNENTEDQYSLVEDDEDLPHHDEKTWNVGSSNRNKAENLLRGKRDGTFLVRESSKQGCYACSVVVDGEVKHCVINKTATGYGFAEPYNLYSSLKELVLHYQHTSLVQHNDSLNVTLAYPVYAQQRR
Description: as §6

[8] = tested on: PARP and caspase-3 cleavage in RPMI-8226 cells; experiment: Western Blot of apoptosis biomarkers; format: cell-based, human
Description: as §3, §4

[9] = tested on: PARP and caspase-3 cleavage in K562 cells; experiment: Western Blot of apoptosis biomarkers; format: cell-based, human
Description: as §3, §4

PI3Kα = PI3Kα (Homo sapiens, UniProt P42336); experiment: ADP-Glo cell-free PI3K kinase activity assay
Chain of PI3Kα (P42336 whole entry): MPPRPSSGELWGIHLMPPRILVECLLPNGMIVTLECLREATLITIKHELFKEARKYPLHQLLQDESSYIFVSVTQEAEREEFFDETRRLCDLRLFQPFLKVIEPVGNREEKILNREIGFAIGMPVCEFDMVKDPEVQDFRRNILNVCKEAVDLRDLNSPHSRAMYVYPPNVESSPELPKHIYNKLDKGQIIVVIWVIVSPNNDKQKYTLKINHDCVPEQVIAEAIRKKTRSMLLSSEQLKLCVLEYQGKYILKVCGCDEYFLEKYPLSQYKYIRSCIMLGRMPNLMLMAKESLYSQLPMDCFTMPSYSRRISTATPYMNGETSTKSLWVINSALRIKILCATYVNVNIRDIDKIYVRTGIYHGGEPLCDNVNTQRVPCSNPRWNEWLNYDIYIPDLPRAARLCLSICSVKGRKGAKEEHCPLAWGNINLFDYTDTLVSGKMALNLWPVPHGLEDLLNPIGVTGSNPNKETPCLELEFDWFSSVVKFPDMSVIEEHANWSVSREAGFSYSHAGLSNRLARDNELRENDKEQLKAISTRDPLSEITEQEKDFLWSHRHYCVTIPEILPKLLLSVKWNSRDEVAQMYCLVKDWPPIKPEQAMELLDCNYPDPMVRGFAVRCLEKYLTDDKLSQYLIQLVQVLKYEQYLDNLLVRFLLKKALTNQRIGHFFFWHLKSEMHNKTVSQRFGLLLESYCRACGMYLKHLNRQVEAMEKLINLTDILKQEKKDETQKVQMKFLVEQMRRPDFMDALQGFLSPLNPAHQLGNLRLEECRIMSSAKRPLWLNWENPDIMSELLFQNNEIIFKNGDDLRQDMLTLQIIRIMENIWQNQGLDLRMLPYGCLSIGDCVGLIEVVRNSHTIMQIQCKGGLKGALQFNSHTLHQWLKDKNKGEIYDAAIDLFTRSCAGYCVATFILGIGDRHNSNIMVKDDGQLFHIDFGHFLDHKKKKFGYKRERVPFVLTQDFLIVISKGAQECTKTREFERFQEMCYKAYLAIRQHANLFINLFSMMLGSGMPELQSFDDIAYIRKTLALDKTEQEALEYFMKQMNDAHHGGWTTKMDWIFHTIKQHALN
Chain of PI3Kα (P27986 whole entry partner): as the sequence (P27986 whole entry partner) above
Description: as §6

Chain of PI3Kδ (O00329 whole entry): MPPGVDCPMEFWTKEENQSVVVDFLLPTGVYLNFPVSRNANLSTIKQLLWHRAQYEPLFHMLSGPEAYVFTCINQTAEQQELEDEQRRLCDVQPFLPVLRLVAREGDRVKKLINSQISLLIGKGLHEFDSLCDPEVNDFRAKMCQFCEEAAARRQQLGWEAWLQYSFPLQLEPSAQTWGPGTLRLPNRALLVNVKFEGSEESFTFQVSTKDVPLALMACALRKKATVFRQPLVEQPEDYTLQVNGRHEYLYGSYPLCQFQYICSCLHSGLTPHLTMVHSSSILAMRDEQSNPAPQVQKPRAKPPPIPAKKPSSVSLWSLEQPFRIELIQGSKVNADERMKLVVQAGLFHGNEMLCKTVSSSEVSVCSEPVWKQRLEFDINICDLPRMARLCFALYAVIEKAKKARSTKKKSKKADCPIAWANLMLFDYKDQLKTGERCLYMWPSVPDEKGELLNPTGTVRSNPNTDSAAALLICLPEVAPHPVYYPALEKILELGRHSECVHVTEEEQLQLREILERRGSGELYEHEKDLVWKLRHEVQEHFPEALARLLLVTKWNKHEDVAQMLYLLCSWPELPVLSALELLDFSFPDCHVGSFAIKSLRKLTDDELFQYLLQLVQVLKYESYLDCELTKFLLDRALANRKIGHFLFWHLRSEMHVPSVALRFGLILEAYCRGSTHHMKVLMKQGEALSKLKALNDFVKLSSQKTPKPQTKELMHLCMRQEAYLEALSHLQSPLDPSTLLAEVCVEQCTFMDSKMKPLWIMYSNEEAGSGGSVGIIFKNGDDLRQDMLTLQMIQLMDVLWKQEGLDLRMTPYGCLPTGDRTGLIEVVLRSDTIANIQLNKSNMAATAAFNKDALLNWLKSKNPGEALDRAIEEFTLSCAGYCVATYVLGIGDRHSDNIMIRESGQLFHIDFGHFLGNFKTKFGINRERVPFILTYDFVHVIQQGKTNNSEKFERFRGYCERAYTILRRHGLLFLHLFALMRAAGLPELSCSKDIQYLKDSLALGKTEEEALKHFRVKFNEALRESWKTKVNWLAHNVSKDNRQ
Chain of PI3Kδ (P27986 whole entry partner): as the sequence (P27986 whole entry partner) above
Chain of PI3Kγ (P48736 whole entry): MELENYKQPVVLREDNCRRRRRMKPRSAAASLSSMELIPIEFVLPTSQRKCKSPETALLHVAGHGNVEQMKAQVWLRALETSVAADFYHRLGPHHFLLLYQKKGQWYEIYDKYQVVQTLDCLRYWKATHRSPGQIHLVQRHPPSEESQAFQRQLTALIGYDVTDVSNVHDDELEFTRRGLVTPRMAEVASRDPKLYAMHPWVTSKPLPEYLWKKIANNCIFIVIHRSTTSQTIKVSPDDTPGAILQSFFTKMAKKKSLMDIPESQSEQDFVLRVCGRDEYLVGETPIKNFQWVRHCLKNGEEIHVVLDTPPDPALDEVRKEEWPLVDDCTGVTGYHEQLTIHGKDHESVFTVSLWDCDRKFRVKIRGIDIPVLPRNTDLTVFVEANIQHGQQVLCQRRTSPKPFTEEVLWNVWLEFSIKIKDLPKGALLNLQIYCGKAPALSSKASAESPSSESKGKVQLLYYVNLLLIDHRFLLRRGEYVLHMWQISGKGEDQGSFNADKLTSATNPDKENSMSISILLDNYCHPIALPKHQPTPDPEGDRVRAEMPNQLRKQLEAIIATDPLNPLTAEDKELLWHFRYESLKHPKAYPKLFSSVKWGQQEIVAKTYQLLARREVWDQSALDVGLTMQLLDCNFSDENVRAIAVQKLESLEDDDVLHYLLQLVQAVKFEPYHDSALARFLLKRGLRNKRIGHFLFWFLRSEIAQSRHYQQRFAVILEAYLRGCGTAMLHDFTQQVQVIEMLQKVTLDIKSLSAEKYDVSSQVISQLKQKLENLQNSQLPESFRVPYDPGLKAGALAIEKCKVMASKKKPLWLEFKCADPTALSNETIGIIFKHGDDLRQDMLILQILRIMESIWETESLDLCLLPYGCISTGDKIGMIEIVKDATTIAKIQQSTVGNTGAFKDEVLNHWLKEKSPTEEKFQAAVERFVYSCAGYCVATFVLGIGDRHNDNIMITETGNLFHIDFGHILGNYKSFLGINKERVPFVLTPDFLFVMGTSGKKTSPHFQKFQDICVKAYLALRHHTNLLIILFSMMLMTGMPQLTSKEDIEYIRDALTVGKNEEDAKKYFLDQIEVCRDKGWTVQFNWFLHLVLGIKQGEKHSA

O=c1cc(N2CCOCC2)oc2c(-c3ccccc3)cccc12 [LY294002, reference compound] was tested. Which pIC50 (PI3Kδ) did it give?
Its pIC50 is 6.11.

Which PI3Kγ inhibitory percent (PI3Kγ) does the source give for C[C@H](Nc1ncnc2nc[nH]c12)c1cc2cccc(Cl)c2c(=O)n1-c1ccccc1 [IPI-145] here?
The PI3Kγ inhibitory percent was “strongest inhibitory activity”.

With CC(=O)c1c(C)n(-c2ccc(C)cc2)c2ccc(OCC(O)CNCc3ccc(Cl)cc3)cc12 (centres unmarked) [JN-KI3] as the molecule, how does the “anti-proliferative activity, RPMI-8226” value (RPMI-8226 cells [1]) read?
Its value is “stronger than IPI-145”.

And the “anti-proliferative activity, U937” value (U937 cells)?
Its value is “stronger than IPI-145”.

What about the “anti-proliferative activity, K562” value (K562 cells [2]; 72 h, MTT, Fig. 3B/3C) of the same molecule?
The value was “stronger than IPI-145”.

And the “sensitivity of K562 proliferation” value (K562 cells [2]; gradient of concentrations, low concentration, Fig. 3D)?
Its value is “significant sensitivity”.

And the “proliferation of hematologic tumor cell lines” value [3]?
Its value is “decreased in a concentration-dependent manner”.

What about the pIC50 (PI3Kδ; read-out: Cell-free inhibitory IC50 PI3Kδ, ATP 25 μM, average of triple tests) of the same molecule?
The pIC50 was less than 4.70.

What about the pIC50 (PI3Kδ; read-out: IC50 PI3Kδ, Table 4) of the same molecule?
Its pIC50 is less than 4.70.

What about the “phosphorylation level of AKT at both sites, time course” value ([4]; RPMI-8226, 20 μM, 0 to 24 h) of the same molecule?
Its value is “significantly inhibited”.

And the “t-AKT, time course” value ([4]; RPMI-8226, 20 μM, 0 to 24 h)?
The value was “not markedly affected”.

And the “AKT phosphorylation at Thr308 and Ser473” value ([4]; RPMI-8226, increasing concentration (2.5-20 μM), 24 h, inhibition even at 2.5 μM)?
The value was “markedly decreased”.

And the “expression of total AKT (t-AKT)” value ([4]; RPMI-8226, increasing concentration, 24 h)?
The value was “not affected”.

What about the “phosphorylation level of AKT at both sites, time course” value ([5]; K562, 20 μM, 0 to 24 h) of the same molecule?
The value was “significantly inhibited”.

And the “t-AKT, time course” value ([5]; K562, 20 μM, 0 to 24 h)?
Its value is “not markedly affected”.

And the “AKT phosphorylation at Thr308 and Ser473” value ([5]; K562, increasing concentration (2.5-20 μM), 24 h, inhibition even at 2.5 μM)?
Its value is “markedly decreased”.

What about the “expression of total AKT (t-AKT)” value ([5]; K562, increasing concentration, 24 h) of the same molecule?
Its value is “not affected”.

And the cells occurring apoptosis (RPMI-8226 cells [6])?
The cells occurring apoptosis was “about 20.43%”.

What about the cells occurring apoptosis (K562 cells [7]; K562, 2.5 μM) of the same molecule?
Its cells occurring apoptosis is 41.2%.

And the cells occurring apoptosis (K562 cells [7]; K562, 5 μM)?
Its cells occurring apoptosis is 47.5%.

What about the cells occurring apoptosis (K562 cells [7]; K562, 10 μM) of the same molecule?
Its cells occurring apoptosis is 65.7%.

What about the pIC50 (PI3Kβ; read-out: Cell-free inhibitory IC50 PI3Kβ, ATP 25 μM, average of triple tests) of the same molecule?
The pIC50 was less than 4.70.

And the pIC50 (PI3Kβ; read-out: IC50 PI3Kβ, Table 4)?
Its pIC50 is less than 4.70.

What about the “cleavage level of Caspase-3 and PARP, time course” value ([8]; RPMI-8226, 20 μM, after 6 h) of the same molecule?
Its value is “significantly increased”.

What about the “cleavage levels of PARP and caspase-3” value ([8]; RPMI-8226, increasing concentrations, 24 h) of the same molecule?
Its value is “obviously increased”.

And the “cleavage level of Caspase-3 and PARP, time course” value ([9]; K562, 20 μM, after 6 h)?
Its value is “significantly increased”.

And the “cleavage levels of PARP and caspase-3” value ([9]; K562, increasing concentrations, 24 h)?
The value was “obviously increased”.

And the pIC50 (PI3Kα; read-out: Cell-free inhibitory IC50 PI3Kα, ATP 25 μM, average of triple tests)?
Its pIC50 is less than 4.70.

And the pIC50 (PI3Kα; read-out: IC50 PI3Kα, Table 4)?
Its pIC50 is less than 4.70.

— publication PMC8800018, “Discovery of novel selective PI3Kγ inhibitors through combining machine learning-based virtual screening with multiple protein structures and bio-evaluation” (Journal of Advanced Research, 2021)
